Reference: EP0170623B1, “Novel pharmaceutical use of (NVA)2-cyclosporine” (SANDOZ AG, priority 1984, dated 1990)

System: Experimental Autoimmune Uveitis (EAV)
Conditions: 25 to 50 mg/kg/day i.m. on 7 consecutive days commencing 7 days after immunization with bovine S antigen; histopathology on day 14; compared with olive oil control groups

For (Nva)^2-Cyclosporine, the “number of animals evidencing EAV” value was “substantial reduction”.
